The source of these data is patent US7413851B2, “Nucleophosmin directed diagnostics and therapeutics for multidrug resistant neoplastic disease” (Aurelium Biopharma, Inc., priority 2002, dated 2008).

In one data set the test system is NB4 cell line. As to the kind of experiment: Cytotoxicity of Ara-C, MTT staining of viable cells. As to conditions: 0 to 1 mM, 72 hours. The data set is classed as cell-based. The procedure:
The cytotoxicity of cytosine-β-D-arabinoside (Ara-C) against CEM, HL60 and NB4 cell lines was examined. Cells were seeded in 96 well plates at 1.5×10^4 cells/well in RPMI1640, 10% FBS, 1 mM HEPES or α-MEM, 10% FBS for HL60 and NB4 or CEM, respectively, with varying concentrations of Ara-C (0 to 1 mM). Cytotoxicity was assessed after 72 hours by staining the viable cells with MTT.

Data set [1] deals with antigen-positive E3 cell line. As to conditions: cited from earlier work.
A further data set relates to E3 target cells. Conditions: cited from earlier work.
For data set [2] the following is noted: anti-CD19 antibody immunoconjugate vs free Ida; read-out: activities; cited from earlier work.
In data set [3] the test system is hematological tumor cells. As to the kind of experiment: Nucleophosmin vaccination before injection of hematological tumor cells. The data set is classed as in vivo. As to conditions: mice vaccinated prior to injection of tumor cells vs not vaccinated.

In the case of `Nc1ccn([C@@H]2O[C@H](CO)[C@@H](O)[C@@H]2O)c(=O)n1` [Ara-C, cytosine-β-D-arabinoside], the “cytotoxicity against NB4 (FIG. 14)” value in the data set with NB4 cell line is given as “resistance”.
With `O=c1[nH]c(=O)n([C@H]2C[C@H](O)[C@@H](CO)O2)cc1F` [FUDR, 5-fluoro-2′-deoxyuridine], the IC50 in data set [1] was 0.4 nM.
As to `CC(=O)[C@]1(O)Cc2c(O)c3c(c(O)c2[C@@H](O[C@H]2C[C@H](N)[C@H](O)[C@H](C)O2)C1)C(=O)c1ccccc1C3=O` [Ida, Idarubicin], the values for the IC50 (in the data set with E3 target cells; in data set [2]) were 120 nM and 12 nM, respectively.
As for “nucleophosmin: purified full length murine nucleophosmin protein used as vaccine antigen, optionally with adjuvant”, in data set [3], the tumor size entry is listed as “smaller”.
